Source: patent publication US20140301961A1, “COMPOUNDS WITH ANTI-AGING ACTIVITIES” (priority 2011, published 2014)

What was measured:
fibronectin = experiment: Fibronectin production in human keratinocytes; type: cell-based; settings: 6 days stimulation, compared to all-trans retinoic acid and retinol
Protocol: (§1) Keratinocytes were cultured in commercially available keratinocyte medium M154 (Cascade Biologics/Invitrogen) # M154500 with a final calcium […]. Supplements were added meeting following final concentrations of growth factors; bovine pituitary extract (BPE), 0.2% v/v·bovine insulin, 5 μg/ml·hydrocortisone, 0.18 μg/ml·bovine transferrin, 5 μg/ml·human epidermal growth factor, 0.2 ng/ml.
(§2) Medium was changed every other day. Cells were grown to 80% confluence prior stimulation with compounds. Experiments were performed in 24-well plates. The cells were treated with individual compounds of the invention for 6 days. After 3 days the medium was refreshed. A source of calcium ions was used as a positive control. After 6 days tissue culture medium was stored in −20° C. until analysis.
Experimental method as outlined in Example 3.1 was modified in order to analyze fibronectin levels extracted from keratinocytes stimulated for 6 days with all-trans retinoic acid, retinol, arachidonic acid, β-aescin, and […] (ethyl ester) at a range of concentrations. Experiments were performed in duplicates.
Cells were cultured as described in Example 5.1. and the methodology described in Example 3.1 was adapted in order analyze fibronectin production.

Keratin 1/10 = Keratin 1/10 production in human normal keratinocytes; type: cell-based; settings: concentration not given
Protocol: as §1, §2
Cells were cultured as described in Example 5.1. and the methodology described in Example 3.1 was adapted in order analyze keratin 1/10 production.

Kallikrein 8 = Kallikrein 8 ELISA in human normal keratinocytes; type: cell-based; settings: 4 days stimulation (FIG. 14)
Protocol: as §1
Keratinocytes used for Kallikrein 8 experiments were cultured as described in example 2.1. Experiments were performed in monolayers with 80% confluence. The cells were stimulated for 4 days prior to kallikrein 8 analysis with the different actives and then culture supernatant were collected and stored in −20° C. until further analysis. Kallikrein 8 production was analysed in cell culture supernatants from stimulated keratinocytes using a ELISA assay specific for Kallikrein 8 (Uscn Life Science Inc, E90690Hu). Results were compared with cell culture supernatants from DMSO vehicle treated cells. The assays utilized a 96-well microplate format and were processed according to the manufacturer's protocol, including generation of a standard curve prepared in background assay diluents. Absorbance of the assay dye was read at a Synergy HT plate reader. Values that fell within the linear range of the calibration assay were accepted. Quantities were determined by comparison to standard curves obtained for KLK8.

pro-collagen type 1 = experiment: Pro-collagen 1 ELISA in dermal fibroblasts; type: cell-based, human; settings: 24 hour stimulation, 3 donors (FIG. 5)
Protocol: (§3) MMP-inhibitory activity for compounds of the invention was also assessed on human dermal fibroblasts. Dermal fibroblasts were cultured in Dulbecco's Modified Eagle Medium (DMEM) (Invitrogen) with 10% EBS (ex. Invitrogen) and 1% Pencillin/Streptavidin (ex. Invitrogen). To induce inflammation in the cells, PMA (phorbol myristate acetate) (ex. Sigma) was used at a concentration of 10 nM. […] The cells were stimulated for 24 h and the culture supernatant was collected and stored at −20° C. until further analysis.
Fibroblast cells were cultured as outlined in Example 3.1 and treated with compounds of the invention The secretion of pro-collagen in the cell culture supernatants were analyzed using Pro-Collagen 1 specific ELISA (#8003; ex. Quidel). Results were compared with cell culture supernatants from DMSO vehicle treated cells. The assays utilized a 96-well microplate format and were processed according to the manufacturer's protocol, including generation of a standard curve prepared in background assay diluents. Absorbance of the assay dye was read at a Synergy HT plate reader. Values that fell within the linear range of the calibration assay were accepted. Quantities were determined by comparison to standard curve obtained for pro-collagen 1.

[1] = cited from earlier work
VEGF = experiment: Inflammation induced VEGF synthesis in cultured dermal fibroblasts; type: cell-based, human; settings: inflammatory inducer PMA (FIG. 10)
Protocol: as §3
Fluorokine MultiAnalyte Profiling (xMAP) using the BioPlex (ex. Biorad) dual laser flow-based sorting and detection analyzers manufactured by Luminex corporation (Luminex, Austin, Tex.) was employed to measure levels of MMP in conditioned media samples of stimulated dermal fibroblasts. The technology incorporated polystyrene microspheres dyed internally with differing ratios of two spectrally distinct fluorophores to create a family of different spectrally addressed bead sets. The bead utilized in this study was conjugated with a biotinylated capture antibody specific for a unique MMPs, The assay was performed without antecedent serum depletion. Results were compared with medium from cells treated with vehicle only (DMSO). The assays utilized a 96-well microplate format and were processed according to the manufacturer's protocol, including generation of a standard curve for each target prepared in background assay diluents. Values that fell within the linear range of the calibration assay were accepted. Samples were analyzed using the Bio-Plex suspension array system and Bio-Plex Manager software 4.0 (Bio-Rad Laboratories, Hercules, Calif.). Quantities were determined by comparison to standard curves obtained for the different MMP.
Cell culture and cytokine analysis was carried out on human dermal fibroblasts as described in Example 3.1. The methodology was adapted in order analyze VEGF production.

[2] = tested on: arachidonate 5-lipoxygenase (ALOX5); experiment: Affymetrix gene array on skin explants, ALOX5; type: cell-based, human; settings: topical, 24 hours
Text: (§4) Subcutaneous fat from full thickness skin, obtained from surgical waste material from breast reduction procedures, was removed with a scalpel. Three healthy Caucasian female donors were used for this study. The female donors differed from those of the skin-treatment study outlined previously 8 mm punch biopsies were taken from the skin (and these biopsies are now referred to as skin explants). Skin explants were put on Milipore cell culture inserts (12 mm diameter). Inserts containing skin explants were put in 6-well plates (one insert/well) and 1 mL of supplemented keratinocyte medium (ex Cascade Biologics) was added to each well. A tretinoin-containing cream (Aberela® ex. Janssen): 0.05% tretinoin in the cream, was applied topically to each explant (5 μL/cm^2) using a positive displacement pipette. A placebo cream without tretinoin was used as a control. The skin explants were incubated with tretinoin for 24 hours at 37° C. in 5% CO2-humidified air.
(§5) RNA concentration was measured with ND-1000 spectrophotometer (ex. NanoDrop Technologies) and RNA quality was evaluated using the Agilent 2100 bioanalyzer system (ex. Agilent Technologies). 250 nanograms of total RNA from each skin or skin explant sample was used to prepare biotinylated fragmented cRNA according to the GeneChip® 3′IVT Express Kit Manual (PN702646 Rev 1, ex. Affymetrix Inc.). Affymetrix GeneChip® expression arrays (Human Genome U133 Plus 2.0) were hybridized for 16 hours in a 45° C. incubator, rotated at 60 rpm. According to the GeneChip Expression Wash, Stain and Scan Manual (PN 702731 Rev 2, ex. Affymetrix Inc.) the arrays were washed and stained using the Fluidics Station 450 and scanned using the GeneChip® Scanner 3000 7G.
(§6) Analysis of the gene expression data was carried out in the statistical computing language R (http://www.r-project.org) using packages available from the Bioconductor project (www.bioconductor.org). The raw data was normalized using the robust multi-array average (RMA) method. In order to search for differentially expressed genes between the X samples and the Y samples group an empirical Bayes moderated t-test was then applied using the ‘limma’ package.
(§7) Skin explants were obtained as detailed in Example 3.1.

[3] = tested on: steroid 5 alpha-reductase 3 (SRD5A3); experiment: Affymetrix gene array on skin explants, SRD5A3; type: cell-based, human; settings: topical, 24 hours
Text: as §4, §5, §6, §7

[4] = tested on: prostaglandin-endoperoxide synthase 1 (PTGS1); experiment: Affymetrix gene array on skin explants, PTGS1; type: cell-based, human; settings: topical, 24 hours
Text: as §4, §5, §6, §7

[5] = tested on: Plasminogen activator (PLAT); experiment: Plasminogen activator (PLAT) activation
[6] = tested on: hydroxysteroid (17-beta) dehydrogenase 2 (HSD17B2); experiment: Affymetrix gene array on skin explants, HSD17B2; type: cell-based, human; settings: topical, 24 hours
Text: as §4, §5, §6, §7

[7] = tested on: heparin-binding EGF-like growth factor (HBEGF); experiment: Affymetrix gene array on skin explants, HBEGF; type: cell-based, human; settings: topical, 24 hours, cut-off |log 2−ratio|>1
Text: as §4, §5
Analysis of the gene expression data was carried out in the statistical computing language R (http://www.r-project.org) using packages available from the Bioconductor project (www.bioconductor.org). The raw data was normalized using the robust multi-array average (RMA) method. […]

[8] = tested on: connective tissue growth factor (CTGF); experiment: Affymetrix gene array on skin explants, CTGF; type: cell-based, human; settings: topical, 24 hours
Text: as §4, §5, §6
Skin explants were obtained as detailed in Example 3.1. Compounds naringenin and N-acetyl aspartic acid were topically applied on skin explants for 24 hours and investigated with Affymetrix gene array.

[9] = tested on: tachykinin, precursor 1 (TAC1); experiment: Affymetrix gene array on skin explants, TAC1; type: cell-based, human; settings: topical, 24 hours
Text: as §4, §5, §6, §7

keratin 6 = experiment: Keratin-6 production in normal human keratinocytes; type: cell-based; settings: normal human keratinocytes (FIG. 11)

Compound	fibronectin production / release (fibronectin)	production of Keratin 1/10 (Keratin 1/10)	synthesis of kallikrein 8 (Kallikrein 8)	production of pro-collagen type 1 (pro-collagen type 1)	inflammatory induced VEGF synthesis (VEGF)	other results
CCCCC/C=C\C/C=C\C/C=C\C/C=C\CCCC(=O)O [Arachdonic acid, Arachidonic acid]	higher fibronectin production than retinoic acid	stimulate production of Keratin 1/10	significant increase in the synthesis of kallikrein 8	promote pro-collagen 1 expression	–	Log p [1]: 6.98
O=c1c(O)c(-c2ccc(O)c(O)c2)oc2cc(O)cc(O)c12 [Quercetin]	–	stimulate production of Keratin 1/10	induce production of Kallikrein 8	promote pro-collagen 1 expression	–	–
CC1=C(/C=C/C(C)=C/C=C/C(C)=C/CO)C(C)(C)CCC1 [retinol, All-trans retinol, reference compound]	–	–	significant stimulation of kallikrein 8	–	small but insignificant decrease in VEGF	–
O=c1cc(-c2ccc(O)cc2)oc2c([C@@H]3O[C@H](CO)[C@@H](O)[C@H](O)[C@H]3O)c(O)cc(O)c12 [Vitexin]	–	–	–	–	–	Log p [1]: 1.5
CC1=C(/C=C/C(C)=C/C=C/C(C)=C/C(=O)O)C(C)(C)CCC1 [All-trans retinoic acid, all-trans retinoic acid, reference compound]	–	–	significant stimulation of kallikrein 8	–	additional increase in VEGF	ALOX5 gene expression [2]: −0.69 log 2−ratio; SRD5A3 gene expression [3]: 0.29 log 2−ratio; PTGS1 gene expression [4]: −1.03 log 2−ratio; Plasminogen activator (PLAT) activation [5]: activated; HSD17B2 gene expression [6]: −0.48 log 2−ratio; HBEGF gene expression [7]: 1.21 log 2−ratio; CTGF gene expression ([8]; cut-off |log 2−ratio|>1): No; CTGF gene expression ([8]; cut-off |log 2−ratio|>1, listed as all-trans retinoic acid): did not have any effect; TAC1 gene expression [9]: −4.01 log 2−ratio
β-aescin [Beta Aescin]	higher fibronectin production than retinoic acid	stimulate production of Keratin 1/10	induce production of Kallikrein 8	convincing trend towards increasing	decreased VEGF expression, although insignificant	–
CC/C=C\C/C=C\C/C=C\C/C=C\C/C=C\C/C=C\CCC(=O)OCC [Docosahexaenoic acid (ethyl ester)]	higher fibronectin production than retinoic acid	stimulate production of Keratin 1/10	significant increase in the synthesis of kallikrein 8	convincing trend towards increasing	–	keratin-6 production (keratin 6): stimulated keratin-6 production
